Marks after values point to notes of the source that are not given here. Bridge positions count the residues as written; N and C are the ends. Ends that are not written are not given here.
Assays:
[1] = tested on: Lactococcus lactis ATCC 11454; assay: Inhibitory spectrum, critical dilution with spot test; type: cell-based; conditions: purified mutacin, 5 μL spotted on soft agar lawn on TSAYE; reciprocal of highest dilution showing inhibition zone
Procedure: (§1) Streptococcus mutans 59.1 and 123.1 produce mutacins F-59.1 and D-123.1 respectively. Micrococcus luteus ATCC 272 (ATCC, Manassas, VA, USA) was used as the indicator strain for the mutacin activity assays. All bacteria were routinely grown aerobically at 37°C in TSBYE made of TSB (Difco laboratories, Detroit, MI, USA) supplemented with 0.3% yeast extract (Becton Dickinson & Co., Cockeysville, MD, USA) or on TSAYE plates made of TSA (Difco) enriched with 0.3% yeast extract. Lactobacillus salivarius strain (provided by Sylvain Moineau, Université Laval, Québec, QC, Canada) was cultivated aerobically at 30°C in MRS medium (Oxoid, Nepean, ON, Canada). Other bacterial strains used for the inhibitory spectra determination are described in Mota-Meira et al. and Morency et al.. Staphylococcus carnosus was obtained from the strain collection of the Department of Microbiology, Biochemistry and Bioinformatics (Université Laval).
(§2) Mutacin activity was determined by the spot test using Micrococcus luteus ATCC 272 as sensitive strain where two-fold dilutions were prepared in acidified (pH 2) peptone water (0.5%). Antibacterial activity spectra of purified mutacins was tested against a panel of bacterial strains using the critical dilution method combined with the spot test method as described previously. Briefly, overnight cultures of test strains in TSBYE were diluted in fresh broth before inoculating 5 mL of soft agar (0.75%) in order to obtain confluent lawns of growth on TSAYE plates. Five μL of purified mutacins, diluted in acidified (10 mM HCl) distilled water to promote solubility of the peptides, were deposited on the lawn and allowed to dry before appropriate incubation. Mutacin activity was expressed in AU/mL and corresponds to the reciprocal of the highest dilution showing a noticeable inhibition zone on the lawn.

[2] = tested on: Listeria murrayi ATCC 25420; assay: as above; type: cell-based; conditions: purified mutacin, 5 μL spotted on soft agar lawn on TSAYE; reciprocal of highest dilution showing inhibition zone
Procedure: as §1, §2

[3] = tested on: S. aureus ATCC 25923; assay: as above; type: cell-based, Staphylococcus aureus; conditions: purified mutacin, 5 μL spotted on soft agar lawn on TSAYE; reciprocal of highest dilution showing inhibition zone
Procedure: as §1, §2

[4] = tested on: S. aureus R621; assay: as above; type: cell-based, Staphylococcus aureus; conditions: purified mutacin, 5 μL spotted on soft agar lawn on TSAYE; reciprocal of highest dilution showing inhibition zone
Procedure: as §1, §2

[5] = tested on: S. aureus ATCC 43300; assay: as above; type: cell-based, Staphylococcus aureus; conditions: purified mutacin, 5 μL spotted on soft agar lawn on TSAYE; reciprocal of highest dilution showing inhibition zone
Procedure: as §1, §2

[6] = tested on: L. murrayi HPB 30; assay: as above; type: cell-based, Listeria murrayi; conditions: purified mutacin, 5 μL spotted on soft agar lawn on TSAYE; reciprocal of highest dilution showing inhibition zone
Procedure: as §1
Mutacin activity was determined by the spot test using Micrococcus luteus ATCC 272 as sensitive strain where two-fold dilutions were prepared in acidified (pH 2) peptone water (0.5%). Antibacterial activity spectra of purified mutacins was tested against a panel of bacterial strains using the critical dilution method combined with the spot test method as described previously. […]

[7] = tested on: Micrococcus luteus ATCC 272; assay: Mutacin activity assay (spot test) of preparations during production and purification; type: cell-based
Procedure: as §1
Purification of the two mutacins was achieved by two hydrophobic chromatography steps as previously described by replacing TFA with HCl (10 mM). Briefly, the active preparation was loaded on a Sep-Pak® Vac 35 cc (10 g) t-C18 Cartridge (Waters Corporation, Milford, MA, USA). Cartridges were first equilibrated with 500 mL of methanol followed by 500 mL of deionized distilled water. Antibacterial compounds were eluted with successive steps of 500 mL of water:methanol mixtures increasing the gradient of methanol by 10% from 0 to 100% in 10 mM HCl. This was carried out at a flow rate of 1 mL/min and UV detection at 214 nm. The final purification step was carried out by reverse phase chromatography (RP)-HPLC analysis (Beckman Gold Model, Coulter Canada Inc., Mississauga, ON, Canada) using an analytical C18 column (Luna 5 μ C18(2), 250 × 4.6 mm, 4 × 3.0 mm, Phenomenex, Torrance, CA, USA). Elution was carried out with solvent A (5% acetonitrile, 10 mM HCl) and solvent B (60% acetonitrile, 10 mM HCl) and recorded at 214 nm. The following program of elution was developed: 0 to 3 min, constant 100% A; 3 to 15 min, a linear gradient from 100% A to 100% B; 15 to 20 min, constant 100% B; 20 to 23 min, a linear gradient from 100% B to 100% A. A flow rate of 1 mL/min was used. The column was maintained at 39°C with a column heater. Active fractions were manually collected, subsequently dried in a Speed-Vac® concentrator (Model SC110A, Savant Instrument Inc. Farmingdale, NY, USA) and then kept at -20°C until processing. Protein concentration in active fractions was determined using the BioRad DC protein assay (BioRad, Mississauga, ON, Canada).
as §2

[8] = tested on: Micrococcus luteus ATCC 272; assay: Inhibitory effect of mutacin F-59.1 on viable count (time-kill); type: cell-based
Procedure: One milliliter of active preparation (1600 AU/mL) adjusted to pH 7.0 was filter sterilised then added to 10 mL of an early-log-phase culture of Micrococcus luteus ATCC 272 grown in TSBYE. Bacterial culture in TSBYE was used as a negative control. The viable count in CFU/mL was determined at intervals for up to 24 h for samples and control during incubation at 37°C by plating 100 μL of an appropriate dilution in peptone water (0.1%) on TSAYE incubated at 37°C at least 24 h.

[9] = tested on: L. monocytogenes ATCC 700302 ScottA; assay: Inhibitory spectrum, critical dilution with spot test; type: cell-based, Listeria monocytogenes; conditions: purified mutacin, 5 μL spotted on soft agar lawn on TSAYE; reciprocal of highest dilution showing inhibition zone
Procedure: as §1, §2

[10] = tested on: L. monocytogenes ATCC 700301 ScottA; assay: as above; type: cell-based, Listeria monocytogenes; conditions: purified mutacin, 5 μL spotted on soft agar lawn on TSAYE; reciprocal of highest dilution showing inhibition zone
Procedure: as §1, §2

[11] = tested on: L. monocytogenes FRDC 88571; assay: as above; type: cell-based, Listeria monocytogenes; conditions: purified mutacin, 5 μL spotted on soft agar lawn on TSAYE; reciprocal of highest dilution showing inhibition zone
Procedure: as §1, §2

[12] = tested on: L. monocytogenes FRDC 1039; assay: as above; type: cell-based, Listeria monocytogenes; conditions: purified mutacin, 5 μL spotted on soft agar lawn on TSAYE; reciprocal of highest dilution showing inhibition zone
Procedure: as §1, §2

With “KYYGNGVTCGKHSCSVDWSKATTNI (disulfide 9-14 (inferred)) [mutacin F-59.1, pediocin-like (class IIa) bacteriocin of 25 amino acids produced by Streptococcus mutans 59.1; UniProt P86386]” the “Activity of mutacin against Lactococcus lactis ATCC 11454” value [1] was 400 AU/mL, the “Activity of mutacin against Listeria murrayi ATCC 25420” value [2] was 200^b AU/mL and the “Activity of mutacin against S. aureus ATCC 25923” value [3] was 0 AU/mL. For the same sequence, the “Activity of mutacin against S. aureus R621” value [4] was 0 AU/mL, the “Activity of mutacin against S. aureus ATCC 43300” value [5] was 0 AU/mL and the “Activity of mutacin against L. murrayi HPB 30” value [6] was 200^b AU/mL. The Activity ([7]; step: C18 RP-HPLC (purified), spot test on M. luteus ATCC 272, two-fold dilutions) was 16000 AU/mL, the “Specific activity (final, purified mutacin)” value ([7]; step: C18 RP-HPLC, per mg total protein (BioRad DC assay)) was 3.2 × 10^5 AU/mg and the Specific activity ([7]; step: Sep-Pak C18, per mg total protein (BioRad DC assay)) was 101 AU/mg. For the same sequence, the Activity ([7]; step: Sep-Pak C18, spot test on M. luteus ATCC 272, two-fold dilutions) was 3200 AU/mL, the Activity ([7]; step: culture supernatant (crude preparation), spot test on M. luteus ATCC 272, two-fold dilutions in acidified (pH 2) peptone water) was 400 AU/mL and the Specific activity ([7]; step: culture supernatant, per mg total protein (BioRad DC assay)) was 40 AU/mg. The “Viable count of M. luteus ATCC 272 after addition of purified mutacin” value ([8]; 160 AU/mL (1 mL of 1600 AU/mL, pH 7.0, added to 10 mL early-log culture in TSBYE), 37°C, followed up to 24 h, CFU/mL by plating) was “dropped to zero”, the “Mode of action (bactericidal or not)” value ([8]; 160 AU/mL, M. luteus ATCC 272, 24 h incubation) was “bactericidal” and the “Activity of mutacin against L. monocytogenes ATCC 700302 ScottA” value [9] was 200^b AU/mL. The “Activity of mutacin against L. monocytogenes ATCC 700301 ScottA” value [10] was 200^b AU/mL, the “Activity of mutacin against L. monocytogenes FRDC 88571” value [11] was 200^b AU/mL and the “Activity of mutacin against L. monocytogenes FRDC 1039” value [12] was 200^b AU/mL.
